Values quoted from earlier work in patent US9790225B2, “4-amino-3-phenylamino-6-phenylpyrazolo[3,4-d]pyrimidine derivatives, their manufacture and their use as antiviral active substances” (Scandion Oncology A/S, priority 2011, dated 2017).

How the values were obtained:
[1] = test system: 48 rhinovirus types, coxsackie virus A21, enterovirus 70, echovirus 11; settings: Pattick et al. 1999; cited from earlier work
[2] = in vivo; cited from earlier work
[3] = in vivo; cited from earlier work; remark: listed apart in the source
[4] = cited from earlier work
[5] = in vivo; cited from earlier work; remark: listed apart in the source

CCOC(=O)/C=C/[C@H](C[C@@H]1CCNC1=O)NC(=O)[C@@H](CC(=O)[C@@H](NC(=O)c1cc(C)on1)C(C)C)Cc1ccc(F)cc1 [AG 7088]
Active concentration range in cell culture [1]: nanomolar concentration range

Cc1cc(CCCCCOc2c(Cl)cc(C3=NCCO3)cc2Cl)on1 [WIN 54954]
Side effects [2]: skin rash | Metabolisation and excretion [3]: fast metabolisation and excretion

CCC(=O)C(CCCCCCOc1ccc(OC)cc1Cl)C(=O)CC [arildone]
Solubility [4]: Poor solubility | Bioavailability [5]: low bioavailability
